Data on nine compounds can be found in patent US20260256925A1, “INDAZOLE DERIVATIVES AS ESTROGEN RECEPTOR DEGRADERS” (REGENTS OF THE UNIVERSITY OF MICHIGAN, priority 2022, published 2026).

Type in all cases: cell-based
The target in test [1] is T1, ER (Homo sapiens, UniProt P03372).
T1 construct: endogenous in cells; probably T47D or MCF-7
T1 sequence (P03372 1-595): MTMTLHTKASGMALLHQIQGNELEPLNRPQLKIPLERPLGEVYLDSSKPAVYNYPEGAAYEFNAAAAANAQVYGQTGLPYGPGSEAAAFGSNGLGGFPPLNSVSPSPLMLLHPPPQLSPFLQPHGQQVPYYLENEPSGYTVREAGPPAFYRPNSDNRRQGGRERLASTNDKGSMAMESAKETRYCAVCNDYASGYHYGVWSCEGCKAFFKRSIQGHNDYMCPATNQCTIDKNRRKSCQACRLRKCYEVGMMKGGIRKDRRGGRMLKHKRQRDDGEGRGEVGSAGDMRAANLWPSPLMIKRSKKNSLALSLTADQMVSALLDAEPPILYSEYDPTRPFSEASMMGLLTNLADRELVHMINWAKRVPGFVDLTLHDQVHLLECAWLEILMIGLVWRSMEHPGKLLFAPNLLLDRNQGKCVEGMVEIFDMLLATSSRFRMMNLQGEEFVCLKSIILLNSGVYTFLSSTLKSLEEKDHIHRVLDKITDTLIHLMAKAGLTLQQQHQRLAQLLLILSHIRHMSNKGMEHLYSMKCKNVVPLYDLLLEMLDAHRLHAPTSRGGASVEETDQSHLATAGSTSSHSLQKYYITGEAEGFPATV
The test is described as follows: Western blot analysis (compounds B1-B126). As to conditions: ER degradation, read-out: Traditional Western Degradation potency (DC50). As to the method: Western Blot Analysis. The cells that are treated with the compounds are lysed in Radioimmunoprecipitation Assay Protein Lysis and Extraction Buffer (e.g., 25 mmol/L Tris.HCl, pH 7.6, 150 mmol/L NaCl, 1% Nonidet P-40, 1% sodium deoxycholate, and 0.1% sodium dodecyl sulfate) containing proteinase inhibitor cocktail. Equal amounts of total protein are electrophoresed through 10% SDS-polyacrylamide gels after determination of protein concentration by BCA assay. The separated protein bands are transferred onto PVDF membranes and blotted against different antibodies. The blots are scanned, and the band intensities are quantified (e.g., by using GelQuant.NET software provided by biochemlabsolutions.com). The relative mean intensity of target proteins is expressed after normalization to the intensity of glyceraldehyde-3-phosphate dehydrogenase bands.
Western Blot Analysis. Western blot analysis was performed essentially as described previously. The cells treated with indicated compounds were lysed in Radioimmunoprecipitation Assay Protein Lysis and Extraction Buffer (25 mmol/L Tris.HCl, pH 7.6, 150 mmol/L NaCl, 1% Nonidet P-40, 1% sodium deoxycholate, and 0.1% sodium dodecyl sulfate) containing proteinase inhibitor cocktail (Roche Diagnostics, Mannheim, Germany). Equal amounts of total protein were electrophoresed through 10% SDS-polyacrylamide gels after determination of protein concentration by BCA assay (Fisher Scientific, Pittsburgh, PA). The separated protein bands were transferred onto PVDF membranes (GE Healthcare Life Sciences, Marlborough, MA) and blotted against different antibodies, as indicated. The blots were scanned, and the band intensities were quantified using GelQuant.NET software provided by biochemlabsolutions.com. The relative mean intensity of target proteins was expressed after normalization to the intensity of glyceraldehyde-3-phosphate dehydrogenase bands.
(Immunoblotting shows a protein as a band on a membrane.)

For test [2], the target named is T1, ER. As to the kind of experiment: In-cell Western (ICW) ER degradation assay in T47D cells. As to conditions: T47D cells, 16 hrs. As to the method:
(§1) ERa degradative activity of compounds can be assessed in MCF-7 and T47D Cells. MCF-7 and T47D cell are seeded and are subsequently treated with the compounds at certain concentrations (e.g., 0.02 to 300 nM). DMSO can be used as vehicle control. Cells are fixed and are blocked with Intercept (PBS) Blocking Buffer (e.g., Li—COR, Odyssey Blocking Buffer), and are stained with ER (e.g., 1:500, Cell signaling) primary antibody for overnight at cold room. Secondary Antibody (e.g., IRDye 800CW Goat anti-Rabbit IgG) and CellTag 700 Stain are added in Intercept (PBS) Blocking Buffer. Finally, cell plate is placed in incubator to dry. Image and signal are captured on Odyssey® DLx Imaging System.
(§2) In-cell Western (ICW) assays in MCF-7 and T47D cell lines.
(§3) Procedures for ICW assays
(§4) In vitro Assay: MCF-7 and T47D ICW assay
(§5) Day 3: After 16 hrs of compounds treatment, cells were fixed by 4% PFA and permeabilized with elution buffer (0.1% Triton X-100 in 1% PBS Solution). Subsequently, cells were blocked with Intercept (PBS) Blocking Buffer (Li—COR, Odyssey Blocking Buffer), and were stained with ER (1:500, Cell signaling) primary antibody for overnight at cold room.
(§6) Day 4: Remove the buffer, add IRDye 800CW Goat anti-Rabbit IgG Secondary Antibody (1:2000) and CellTag 700 Stain (1:500) in Intercept (PBS) Blocking Buffer. Finally, cell plate is placed in incubator to dry. Image and signal were captured on Odyssey® DLx Imaging System.

Test [3] concerns the target T1, ER. The test is described as follows: In-cell Western (ICW) ER degradation assay in MCF-7 cells. As to conditions: 16 hrs. As to the method: as §1, §2, §3, §4, §5, §6
The target in test [4] is T1, ER. The test is described as follows: In-cell western blot analysis, relative ER percentage (compounds B1-B126). The settings on record: ER degradation, 16 hours, read-out: ICW DC50. In short, it runs like this:
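Readout was a two-colour infrared in-cell western of formaldehyde-fixed cells after 16 h compound exposure at 0.5% DMSO, with 40,000 or 10,000 cells/well plated the previous night. Relative ER percentage compares treated wells against untreated/DMSO-treated wells taken as 100%.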

Test [5] is described as follows: Cell growth assay, WST-8 (compounds B1-B126). The settings on record: 96 h; T47D cell line, WST-8, 4 days; read-out: Cell growth inhibition in T47D cell line IC50. The essentials: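 Read-out is WST-8 absorbance at 450 nm (2.5 h, 37° C) as a fraction of vehicle control, from three separate repeats. Compound exposure lasted 4 days, starting one day after plating 1500 cells/well.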
A general note: Tetrazolium dyes change colour on reduction, which living cells bring about.

By DC50 is commonly meant the midpoint of the concentration-degradation curve. `C[C@@H]1Cc2c(ccc3[nH]ncc23)[C@@H](c2c(F)cc([C@H]3CC[C@H](C(=O)N4CCC(N5Cc6cc7c(cc6C5)C(=O)N(C5CCC(=O)NC5=O)C7=O)CC4)CC3)cc2F)N1CC(F)F` (stereo partly drawn) [Compound B2, 6-(1-((1S,4r)-4-(4-((6S,8R)-7-(2,2-difluoroethyl)-8-methyl-6,7,8,9-tetrahydro-3H-pyrazolo[4,3-f]isoquinolin-6-yl)-3,5-difluorophenyl)cyclohexane-1-carbonyl)pipcridin-4-yl)-2-(2,6-dioxopiperidin-3-yl)-6,7-dihydropyrrolo[3,4-f]isoindole-1,3(2H,5H)-dione]: the DC50 at ER [1] was < 10 nM. On the same count and under the same terms, for `C[C@@H]1Cc2c(ccc3[nH]ncc23)[C@@H](c2c(F)cc(C3CCN(C(=O)[C@H]4CC[C@@H](N5Cc6cc7c(cc6C5)C(=O)N(C5CCC(=O)NC5=O)C7=O)CC4)CC3)cc2F)N1CC(F)F` (stereo partly drawn) [Compound B8, 6-((1R,4s)-4-(4-(4-((6S,8R)-7-(2,2-difluoroethyl)-8-methyl-6,7,8,9-tetrahydro-3H-pyrazolo[4,3-f]isoquinolin-6-yl)-3,5-difluorophenyl)piperidine-1-carbonyl)cyclohexyl)-2-(2,6-dioxopiperidin-3-yl)-6,7-dihydropyrrolo[3,4-f]isoindole-1,3(2H,5H)-dione] the value was > 100 nM. With `C[C@@H]1Cc2c(ccc3[nH]ncc23)[C@@H](c2c(F)cc(N3CCC(CN4CCC(N5Cc6cc7c(cc6C5)C(=O)N(C5CCC(=O)NC5=O)C7)CC4)CC3)cc2F)N1CC(F)F` (stereo partly drawn) [Compound B71, 3-(6-(1-((1-(4-((6S,8R)-7-(2,2-difluoroethyl)-8-methyl-6,7,8,9-tetrahydro-3H-pyrazolo[4,3-f]isoquinolin-6-yl)-3,5-difluorophenyl)piperidin-4-yl)methyl)piperidin-4-yl)-1-oxo-3,5,6,7-tetrahydropyrrolo[3,4-f]isoindol-2(1H)-yl)piperidine-2,6-dione], at ER [1], the DC50 was in the range of 10 to 100 nM. On the same count and under the same terms, under `C[C@@H]1Cc2c(ccc3[nH]ncc23)[C@@H](c2c(F)cc(N3CCC4(CCN(CC(=O)N5Cc6cc7c(cc6C5)C(=O)N(C5CCC(=O)NC5=O)C7=O)CC4)CC3)cc2F)N1CC(F)F` (stereo partly drawn) [Compound B5, 6-(2-(9-(4-((6S,8R)-7-(2,2-difluoroethyl)-8-methyl-6,7,8,9-tetrahydro-3H-pyrazolo[4,3-f]isoquinolin-6-yl)-3,5-difluorophenyl)-3,9-diazaspiro[5.5]undecan-3-yl)acetyl)-2-(2,6-dioxopiperidin-3-yl)-6,7-dihydropyrrolo[3,4-f]isoindole-1,3(2H,5H)-dione] stands 10 to 100 nM; under `C[C@@H]1Cc2c(ccc3[nH]ncc23)[C@@H](c2c(F)cc(N3CCC4(CC3)CN(C(=O)CN3Cc5cc6c(cc5C3)C(=O)N(C3CCC(=O)NC3=O)C6=O)C4)cc2F)N1CC(F)F` (stereo partly drawn) [Compound B4, 6-(2-(7-(4-((6S,8R)-7-(2,2-difluoroethyl)-8-methyl-6,7,8,9-tetrahydro-3H-pyrazolo[4,3-f]isoquinolin-6-yl)-3,5-difluorophenyl)-2,7-diazaspiro[3.5]nonan-2-yl)-2-oxoethyl)-2-(2,6-dioxopiperidin-3-yl)-6,7-dihydropyrrolo[3,4-f]isoindole-1,3(2H,5H)-dione], < 10 nM. For orientation: Dmax means the largest share of the target that was removed. Consider `C[C@@H]1Cc2c(ccc3[nH]ncc23)[C@@H](c2ccc(N3CCC4(CC3)CC(CN3CCN5c6cc7c(cc6OC[C@@H]5C3)C(=O)N([C@@H]3CCC(=O)NC3=O)C7)C4)cn2)N1CC1(F)CC1` [Compound A12, (R)-3-((S)-3-((7-(6-((6S,8R)-7-((1-fluorocyclopropyl)methyl)-8-methyl-6,7,8,9-tetrahydro-3H-pyrazolo[4,3-f]isoquinolin-6-yl)pyridin-3-yl)-7-azaspiro[3.5]nonan-2-yl)methyl)-8-oxo-1,2,3,4,4a,5,8,10-octahydro-9H-pyrazino[1′,2′: 4,5][1,4]oxazino[2,3-f]isoindol-9-yl)piperidine-2,6-dione], for which the DC50 on ER [2] is < 1 nM; at ER [3] (MCF-7 cells, read-out: ER MCF7 ICW DC50), < 1 nM. Also, the Dmax is > 75% on ER [2] (T47D, read-out: ER T47D ICW Dmax (%)) and > 75% at ER [3] (MCF7, MCF-7 cells, read-out: ER MCF7 ICW Dmax (%)). Consider `C[C@@H]1Cc2c(ccc3[nH]ncc23)[C@@H](c2ccc(C3CCC(C(=O)N4CCC(N5Cc6cc7c(cc6C5)C(=O)N(C5CCC(=O)NC5=O)C7=O)CC4)CC3)cn2)N1CC(F)(F)F` (stereo partly drawn) [Compound B10, 2-(2,6-dioxopiperidin-3-yl)-6-(1-(4-(6-((6S,8R)-8-methyl-7-(2,2,2-trifluoroethyl)-6,7,8,9-tetrahydro-3H-pyrazolo[4,3-f]isoquinolin-6-yl)pyridin-3-yl)cyclohexane-1-carbonyl)piperidin-4-yl)-6,7-dihydropyrrolo[3,4-f]isoindole-1,3(2H,5H)-dione], for which the DC50 on ER [1] was in the range of 10 to 100 nM. Usually IC50 stands for the point on the concentration scale where inhibition reaches its midpoint. As for `C[C@@H]1Cc2c(ccc3[nH]ncc23)[C@@H](c2ccc(N3CCC4(CCN(CC(=O)N5Cc6cc7c(cc6C5)C(=O)N(C5CCC(=O)NC5=O)C7)CC4)CC3)cn2)N1CC(F)(F)F` (stereo partly drawn) [Compound B76, 3-(6-(2-(9-(6-((6S,8R)-8-methyl-7-(2,2,2-trifluoroethyl)-6,7,8,9-tetrahydro-3H-pyrazolo[4,3-f]isoquinolin-6-yl)pyridin-3-yl)-3,9-diazaspiro[5.5]undecan-3-yl)acetyl)-1-oxo-3,5,6,7-tetrahydropyrrolo[3,4-f]isoindol-2(1H)-yl)piperidine-2,6-dione], the DC50 on ER [4] is < 10 nM. Besides, the IC50 in test [5] fell in the range of 1 to 10 nM.

Consider `C[C@@H]1Cc2c(ccc3[nH]ncc23)[C@@H](c2ccc(N3CC4(CCC(CN5CCC6(CC5)COc5c6ccc6c5CN(C5CCC(=O)NC5=O)C6=O)CC4)C3)cn2)N1CC(F)(F)F` (stereo partly drawn) [Compound B57, 3-(1′-((2-(6-((6S,8R)-8-mcthyl-7-(2,2,2-trifluoroethyl)-6,7,8,9-tetrahydro-3H-pyrazolo[4,3-f]isoquinolin-6-yl)pyridin-3-yl)-2-azaspiro[3.5]nonan-7-yl)methyl)-6-oxo-6,8-dihydro-2H,7H-spiro[furo[2,3-e]isoindole-3,4′-piperidin]-7-yl)piperidine-2,6-dione], for which the DC50 on ER [4] is < 10 nM. Further, the IC50 in test [5] was < 1 nM.
